For data set [1], the system named is Trypanosoma brucei rhodesiense, Plasmodium falciparum, Leishmania donovani. Briefly: In vitro antiprotozoal activities, overall statement on prodrugs. The format is cell-based. As to conditions: absence of the enzymes needed for bioconversion to the active diamidines. On the procedure: In vitro antiprotozoal activities were measured following established protocols. See Ismail, M. A., et al., J. Med. Chem., 46, 4761-4769 (2003); Stephens, C. E., et al., Bioorg. Med. Chem. Lett., 13, 2065-2069 (2003) (in vitro assay against Leishmania donovani). The activities of compounds 8, 14, 16, 17, 19, 22, 26a, 26b, 29a, 29b, and 33, 39, and 45 against Trypanosoma brucei riodesiense (T. b. r.), Plasmodium falciparum (P. f.), Leishmania donovani (L. d.), and L-6 rat mycoblast cells (as an assay for cell toxicity) are shown in Table 1. These values are compared to those of pentamidine and furamidine.

In the next data set the test system is Plasmodium falciparum. Description: In vitro antiprotozoal activity against P. f. The format is cell-based. On the procedure: (§1) In vitro antiprotozoal activities were measured following established protocols. […] E., et al., Bioorg.
For another data set, the system named is L-6 rat mycoblast cells. Briefly: Cell toxicity assay in L-6 rat mycoblast cells. The format is cell-based. As to conditions: assay for cell toxicity, read-out: L6 Rat Mycoblast Cells IC50. The protocol:
as §1

Data set [2] concerns Trypanosoma brucei rhodesiense. Description: In vitro antiprotozoal activity against T. b. r. Format: cell-based. The protocol: as §1
The subject of data set [3] is STIB 900 strain of Trypanosoma brucei rhodesiense. Briefly: In vivo activity against T. b. r. STIB 900 in a mouse model. The following applies: for Survival: average days of survival, mice, untreated controls die between day 7 and 8; for Survival / Cures: days 3-6 post-infection; for Cures: number of mice that survive and are parasite free for 60 days, groups of four mice; for in vivo activity against T. b. r. (in words) / cure rate compared with pentamidine and furamidine (in words): murine model; for cure rate compared with pentamidine and furamidine (in words): T. b. r. STIB 900. The protocol:
The activities of compounds 6, 8, 14, 16 and 17, against the STIB 900 strain of Trypanosoma brucei rhodesiense (T. b. r.) in a mouse model are shown in Table 2. These values are compared to those of pentamidine and furamidine. Groups of four mice were infected intraperitoneally with […] bloodstream forms of T. b. r. STIB 900 which originates from a patient in Tanzania. On days 3, 4, 5, and 6 post-infection the experimental groups were treated with the drugs either by the intraperitoneal or for prodrugs by the oral route. Usually the highest tolerated dose was used which was determined in a pretoxicological experiment. Parasitemia of the mice was checked daily up to day 14 post-infection and thereafter 2 times per week up to day 60. One group of mice was not treated and acted as control. For relapsing mice, the day of death was recorded and the survival time determined.

The test system of the next data set is Leishmania donovani. Description: In vitro antiprotozoal activity against L. d. The format is cell-based. The following applies: read-out: L.d. C50. On the procedure:
as §1

The subject of the next data set is polyA.polyT. Description: DNA binding study: increase in thermal melting (ΔTm) of polyA.polyT. The following applies: increase in thermal melting of polyA.polyT in the presence of compound. On the procedure:
DNA binding studies with polyA.polyT were carried out using established protocols. See Wilson, W. D., et al., Biochemistry, 32, 4098-4104 (1993).

Where [4] appears, read: Trypanosoma brucei, RHODESIENSE

The term melting point denotes the temperature of the solid-liquid transition.

Where “and” joins values, the source holds several entries; their conditions need not be identical. Identical values can stand only once. Counter-ions that a name gives are not always drawn. Like-named read-outs stand apart in the source and are kept apart here.

On to `CONC(=N)c1ccc(-c2ccc(-c3ccc(-c4ccc(C(=N)NOC)cc4)o3)o2)cc1` [Compound 19, 5,5′-Bis-[4-(N-methoxyamidino)phenyl]-2,2′-bifuran], for which the “in vitro activity (in words)” value in data set [1] is “poor in vitro activity”. Besides, the IC50 in the data set on Plasmodium falciparum (Plasmodium falciparum) is over 7.4 µM; with L-6 rat mycoblast cells, over 133 µM; in data set [2] (setting [4]), 36 µM.

With `N=C(NO)c1ccc(-c2ccc(-c3ccc(C(=N)NO)o3)o2)nc1` [Compound 13, N-Hydroxy-6-[5′-(N-hydroxyamidino)-2,2′-bifuran-5-yl]-nicotinamidine], the melting point is 248 to 250 °C.

On to `N=C(NO)c1ccc(-c2ccc(-c3ccc(C(=N)NO)o3)o2)cc1` [Compound 6, N-Hydroxy-5′-[4-(N-hydroxyamidino)-phenyl]-2,2′-bifuran-5-carboxamidine], for which, in data set [3] (po, 75 mg/kg), the Survival was 20 days and the Cures is 0/4. Besides, the “in vitro activity (in words)” value in data set [1] was “poor in vitro activity”.

As to `N=C(N)c1ccc(-c2ccc(-c3ccc(-c4ccc(C(=N)N)cn4)o3)o2)nc1` [Compound 22, 5,5′-Bis-(5-amidino-2-pyridyl)-2,2′-bifuran], the IC50 with Leishmania donovani was over 100 µM; in the data set with Plasmodium falciparum (Plasmodium falciparum) it was 0.029 µM; in the data set on L-6 rat mycoblast cells it was 5.1 µM; in data set [2] (setting [4]), 0.07 µM.

Consider `N=C(N)c1ccc(-c2ccc(-c3ccc(-c4ccc(C(=N)N)cc4)[se]3)[se]2)cc1` [Compound 29a, 5,5′-Bis-(4-amidinophenyl)-2,2′-biselenophene], for which the melting point was over 300 °C. In the data set with Plasmodium falciparum, this compound yielded an IC50 of 0.014 µM. The compound further had an IC50 in the data set on Plasmodium falciparum (Plasmodium falciparum) of at most 0.022 µM. Further, in the data set on L-6 rat mycoblast cells, the IC50 worked out at 13.4 µM. This compound displayed an IC50 in data set [2] of 0.026 µM. Also, in data set [2] (setting [4]), the IC50 was at most 0.026 µM.

The compound `N=C(N)c1ccc(-c2ccc(-c3ccc(-c4ccc(C(=N)N)cc4)s3)s2)cc1` [Compound 26a, 5,5′-Bis-(4-amidinophenyl)-2,2′-bithiophene] returned a melting point of over 300 °C. This compound had an IC50 in the data set with Plasmodium falciparum of 0.022 µM. The IC50 in the data set with Plasmodium falciparum (Plasmodium falciparum) was at most 0.022 µM. The IC50 in the data set with L-6 rat mycoblast cells was found to be 89.4 µM. Besides, the IC50 in data set [2] was 0.015 µM. Also, the IC50 in data set [2] (setting [4]) was at most 0.026 µM.

As to `N=C(N)c1ccc(OCCCCCOc2ccc(C(=N)N)cc2)cc1` [Pentamidine, reference compound], in data set [3] (ip, 20 mg/kg), the Survival is reported as over 42.75 days and the Cures is listed as 0/4. Moreover, in the data set on Leishmania donovani, the IC50 turned out to be 2 µM.

For `N/C(=N\O)c1ccc(-c2ccc(-c3ccc(-c4ccc(/C(N)=N\O)cc4)o3)o2)cc1` [Compound 16, 5,5′-bis-(4-N-Hydroxybenzamidine)-2,2′-bifuran], in data set [3] (po, 100 mg/kg), the Survival is 5.5 days. In addition, in data set [3] (po, 100 mg/kg), the Cures was 0/4. Moreover, the “in vitro activity (in words)” value in data set [1] was “poor in vitro activity”. Besides, the IC50 in the data set with Plasmodium falciparum (Plasmodium falciparum) was 2.96 µM; with L-6 rat mycoblast cells it was over 182 µM; in data set [2] (setting [4]), 8.7 µM.

With `N=C(N)c1ccc2nc(-c3ccc(-c4ccc(C(=N)N)o4)o3)[nH]c2c1` [Compound 45], the Δ Tm with polyA.polyT was found to be 23.2 °C. Besides, in the data set with L-6 rat mycoblast cells, the IC50 turned out to be 41.8 µM.

With `CC(=O)O.N=C(N)c1ccc(-c2ccc(-c3ccc(C(=N)N)o3)o2)nc1` [Compound 14, 6-(5′-Amidino-2,2′-bifuran-5-yl)-nicotinamidine acetate salt], in data set [3] (ip, 10 mg/kg), the Survival is on record as over 51.25 days. In addition, in data set [3], the “in vivo activity against T. b. r. (in words)” value was “good in vivo activity”; the “cure rate compared with pentamidine and furamidine (in words)” value is “better cure rates than pentamidine and furamidine”. Also, the Cures result in data set [3] (ip, 10 mg/kg, acetate salt, 10 mg/kg) is “three mice out of four and 3/4”. The Δ Tm in the data set on polyA.polyT was 7.1 °C. Moreover, the IC50 in the data set with L-6 rat mycoblast cells amounted to 26.9 µM.

Consider `N=C(N)c1ccc(-c2ccc(-c3ccc(C(=N)N)o3)o2)cc1` [Compound 8, 5′-(4-Amidinophenyl)-2,2′-bifuran-5-carboxamidine], for which, in data set [3] (ip, 20 mg/kg), the Survival is on record as over 45.5 days and the Cures is given as 2/4. In addition, in data set [3], the “in vivo activity against T. b. r. (in words)” value is recorded as “good in vivo activity”; the “cure rate compared with pentamidine and furamidine (in words)” value is “better cure rates than pentamidine and furamidine”. Besides, in the data set on polyA.polyT, the Δ Tm is 10.8 °C. In the data set on Plasmodium falciparum (Plasmodium falciparum), this compound registered an IC50 of 0.0415 µM. Moreover, in the data set with L-6 rat mycoblast cells, the IC50 came to 37.8 µM.

`N=C(N)c1ccnc(-c2ccc(-c3ccc(-c4cc(C(=N)N)ccn4)[se]3)[se]2)c1` [Compound 29b, 5,5′-Bis-(4-amidino-2-pyridyl)-2,2′-biselenophene] displayed a melting point of over 300 °C. The IC50 in the data set with Leishmania donovani turned out to be 19.8 µM. The IC50 in the data set with Plasmodium falciparum (Plasmodium falciparum) was 0.076 µM. In addition, the IC50 in the data set on L-6 rat mycoblast cells was over 144 µM. Also, the IC50 in data set [2] (setting [4]) was determined as 0.153 µM.

`N=C(N)c1ccc(-c2ccc(-c3ccc(-c4ccc(C(=N)N)cn4)o3)o2)nc1` (as salt: salt) [Compound 22, 5,5′-Bis-(5-amidino-2-pyridyl)-2,2′-bifuran]: the melting point is over 300 °C.

Consider `N=C(N)c1ccnc(-c2ccc(-c3ccc(-c4cc(C(=N)N)ccn4)s3)s2)c1` [Compound 26b, 5,5′-Bis-(4-amidino-2-pyridyl)-2,2′-bithiophene], for which the melting point was over 300 °C. Moreover, the IC50 in the data set on Leishmania donovani is over 50 µM. The IC50 in the data set on Plasmodium falciparum (Plasmodium falciparum) turned out to be 0.034 µM. In addition, in the data set on L-6 rat mycoblast cells, the IC50 was over 159 µM. In data set [2] (setting [4]), this compound came in with an IC50 of 0.036 µM.

`Cl.N=C(N)c1ccc(-c2ccc(-c3ccc(-c4ccc(C(=N)N)cc4)o3)o2)cc1` [Compound 17, 5,5′-bis-(4-Amidinophenyl)-2,2′-bifuran hydrochloride salt] showed a Survival in data set [3] (ip, 10 mg/kg) of 24 days. For the same compound, in data set [3] (ip, 10 mg/kg), the Cures is listed as 0/4. In addition, the IC50 was 1 µM in the data set on Leishmania donovani; at most 0.022 µM in the data set with Plasmodium falciparum (Plasmodium falciparum); 0.02 µM in the data set on Plasmodium falciparum (hydrochloride salt); 10.7 µM in the data set on L-6 rat mycoblast cells; 0.126 µM in data set [2] (setting [4]). The Δ Tm in the data set with polyA.polyT turned out to be 23.6 °C.

Values taken from patent US7517893B2, “Bichalcophenes and their prodrugs as antiprotozoal agents” (The University of North Carolina at Chapel Hill, priority 2005, dated 2009).
